According to patent publication US7109380B2, “Cyclopentenedione antifungal compounds and methods for their use” (The University of Mississippi, priority 2004, dated 2006):
pIC50: −log10 of the molar value.

Assays:
Phomopsis viticola = assay: 96-well microtiter fungal growth assay; format: cell-based;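 for Mean percent fungal growth inhibition of Phomopsis viticola: percent relative to untreated positive growth controls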
Outline: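 Conidial suspensions adjusted to 1.0×10^6 conidia/mL challenged with compounds at final 0.3, 3.0 and 30.0 μM, duplicate per dose, repeated twice. Incubated at 24±1 °C with 12 h photoperiod; growth measured as absorbance at 620 nm at 48 and 72 h (120 h for Phomopsis). Means compared by ANOVA and Fisher's protected LSD.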

Phomopsis obscurans = assay: 96-well microtiter fungal growth assay; format: cell-based

COC(/C=C/c1ccccc1)=C1\C(=O)C=C(C)C1=O [Compound 1, coruscanone A]
Mean percent fungal growth inhibition of Phomopsis viticola (Phomopsis viticola; 0.3 μm, 120 hrs): 7.4 ± 124.1% | Mean percent fungal growth inhibition of Phomopsis viticola (Phomopsis viticola; 0.3 μm, 144 hrs): 423.2 ± 185.3% | Mean percent fungal growth inhibition of Phomopsis viticola (Phomopsis viticola; 3.0 μm, 120 hrs): −71.1 ± 50.9% | Mean percent fungal growth inhibition of Phomopsis viticola (Phomopsis viticola; 3.0 μm, 144 hrs): −71.3 ± 15.7% | Mean percent fungal growth inhibition of Phomopsis viticola (Phomopsis viticola; 30 μm, 120 hrs): −61.8 ± 86.8% | Mean percent fungal growth inhibition of Phomopsis viticola (Phomopsis viticola; 30 μm, 144 hrs): −79.1 ± 13.3% | pIC50 (Phomopsis viticola; Diaporthe ampelina, 72 h, read-out: IC50 (growth inhibition)): > 5.81 | Percent change in fungal growth vs control (negative = inhibition) (Phomopsis obscurans; 0.3 μm, 120 hrs): 3.3 ± 19.9% | Percent change in fungal growth vs control (negative = inhibition) (Phomopsis obscurans; 0.3 μm, 144 hrs): 33.3 ± 41.6% | Percent change in fungal growth vs control (negative = inhibition) (Phomopsis obscurans; 3.0 μm, 120 hrs): −37.4 ± 25.0% | Percent change in fungal growth vs control (negative = inhibition) (Phomopsis obscurans; 3.0 μm, 144 hrs): −13.3 ± 36.0% | Percent change in fungal growth vs control (negative = inhibition) (Phomopsis obscurans; 30 μm, 120 hrs): −88.5 ± 3.4% | Percent change in fungal growth vs control (negative = inhibition) (Phomopsis obscurans; 30 μm, 144 hrs): −96.9 ± 1.2% | pIC50 (Phomopsis obscurans; Paraphomopsis obscurans, Phomopis obscurans, at 120 hr, read-out: IC50 (growth inhibition)): > 5.51
